Patent US20170291905A1, “ARGININE […] INHIBITORS AND USES THEREOF” (Epizyme, Inc., priority 2014, published 2017)
Structures can show the parent of a compound that is named as a salt.

Molecular target: full-length human PRMT6 (Flag- and His-tagged) (Homo sapiens, UniProt Q96LA8)
Experiment: PRMT6 biochemical assay (3H-SAM Flashplate, histone H4 36-50 K44me1 peptide)
Settings: 1 nM PRMT6, 30 min preincubation, 75 nM peptide
Text: S-adenosylmethionine (SAM), S-adenosylhomocysteine (SAH), bicine, Tween20, dimethylsulfoxide (DMSO), bovine skin gelatin (BSG), sodium butyrate and Tris(2-carboxyethyl)phosphine hydrochloride solution (TCEP) were purchased from Sigma-Aldrich at the highest level of purity possible. ^3H-SAM was purchase from American Radiolabeled Chemicals with a specific activity of 80 Ci/mmol. 384-well streptavidin Flashplates were purchased from PerkinElmer.
Peptide representative of human histone H4 residues 36-50 was synthesized with an N-terminal linker-affinity tag motif and a C-terminal amide cap by 21st Century Biochemicals. The peptide was purified by high-performance liquid chromatography (HPLC) to greater than 95% purity and confirmed by liquid chromatography mass spectrometry (LC-MS). The sequence was Biot-Ahx-[…]-amide and contained a monomethylated lysine at position 44 (SEQ ID NO.:5).
Full-length human PRMT6 (NM_018137.2) transcript clone was amplified from an HEK 293 cDNA library, incorporating a flanking 5′ sequence encoding a FLAG tag ([…]) (SEQ ID NO.:6) fused directly to Ser 2 of PRMT6 and a 3′ sequence encoding a hexa His sequence (HHHHHH) (SEQ ID NO.: 17) fused directly to Asp 375. The amplified gene was subcloned into pFastBacMam (Viva Biotech).
Recombinant baculovirus were generated according to Bac-to-Bac kit instructions (Life Technologies). […] Infections were carried out at 37° C. for 48 hours, harvested by centrifugation, and stored at −80° C. for purification.
Column was washed with 20 mM imidazole in the same buffer and Flag-PRMT6-His was eluted with 150 mM imidazole. Pooled fractions were dialysed against buffer Ni-A and further purified by anti-flag M2 affinity chromatography. Flag-PRMT6-His was eluted with 200 ug/ml FLAG peptide in the same buffer. Pooled fractions were dialysed in 20 mM Tris, 150 mM NaCl, 10% glycerol and 5 mM β-mercaptoethanol, pH 7.8. The purity of recovered protein was 95%.
General Procedure for PRMT6 Enzyme Assays on Peptide Substrates.
The assays were all performed in a buffer consisting of 20 mM Bicine (pH=7.6), 1 mM TCEP, 0.005% BSG, and 0.002% Tween 20, prepared on the day of use. Compounds in 100% DMSO (1 ul) were spotted into a polypropylene 384-well V-bottom plates (Greiner) using a Platemate Plus outfitted with a 384-channel head (Thermo Scientific). DMSO (1 ul) was added to Columns 11, 12, 23, 24, rows A-H for the maximum signal control and 1 ul of SAH, a known product and inhibitor of PRMT6, was added to columns 11, 12, 23, 24, rows I-P for the minimum signal control. A cocktail (40 ul) containing the PRMT6 enzyme was added by Multidrop Combi (Thermo-Fisher). The compounds were allowed to incubate with PRMT6 for 30 min at room temperature, then a cocktail (10 ul) containing SAM and peptide was added to initiate the reaction (final volume=51 ul). The final concentrations of the components were as follows: PRMT6 was 1 nM, ^3H-SAM was 200 nM, non-radiolabeled SAM was 250 nM, peptide was 75 nM, SAH in the minimum signal control wells was 1 mM, and the DMSO concentration was 2%. The assays were stopped by the addition of non-radiolabeled SAM (10 ul) to a final concentration of 400 uM, which dilutes the ^3H-SAM to a level where its incorporation into the peptide substrate is no longer detectable. 50 ul of the reaction in the 384-well polypropylene plate was then transferred to a 384-well Flashplate and the biotinylated peptides were allowed to bind to the streptavidin surface for at least 1 hour before being washed once with 0.1% Tween20 in a Biotek ELx405 plate washer. The plates were then read in a PerkinElmer TopCount plate reader to measure the quantity of ^3H-labeled peptide bound to the Flashplate surface, measured as disintegrations per minute (dpm) or alternatively, referred to as counts per minute (cpm).
Where dpm=disintegrations per minute, cmpd=signal in assay well, and min and max are the respective minimum and maximum signal controls. […]

Sequence of full-length human PRMT6 (Flag- and His-tagged) (Q96LA8 with tags, fused parts or gaps): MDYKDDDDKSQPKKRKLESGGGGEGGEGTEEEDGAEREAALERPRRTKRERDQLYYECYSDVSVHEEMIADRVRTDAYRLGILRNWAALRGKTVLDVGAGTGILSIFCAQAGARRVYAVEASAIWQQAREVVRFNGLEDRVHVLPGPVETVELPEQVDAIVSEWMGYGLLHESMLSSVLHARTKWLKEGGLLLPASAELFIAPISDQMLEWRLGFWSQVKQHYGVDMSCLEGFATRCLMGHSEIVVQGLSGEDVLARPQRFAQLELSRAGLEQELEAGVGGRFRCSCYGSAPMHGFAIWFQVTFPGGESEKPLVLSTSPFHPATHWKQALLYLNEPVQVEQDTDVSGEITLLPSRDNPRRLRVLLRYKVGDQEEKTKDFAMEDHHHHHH

SMILES	IC50
CNCCN(C)Cc1c[nH]nc1C1CCC(OCCCOC)C2(CCCC2)C1 (mixture of isomers) [compound 19, N1-((3-(10-(3-methoxypropoxy)spiro[4.5]decan-7-yl)-1H-pyrazol-4-yl)methyl)-N1,N2-dimethylethane-1,2-diamine dihydrochloride]	191 nM
CNCCN(C)Cc1c[nH]nc1[C@@H]1CC[C@@H](OCCCOC)C2(CCCC2)C1 (racemic) [compound 26, N1-((3-((7R,10R)-10-(3-methoxypropoxy)spiro[4.5]decan-7-yl)-1H-pyrazol-4-yl)methyl)-N1,N2-dimethylethane-1,2-diamine]	107 nM
CNCCN(C)Cc1c[nH]nc1[C@@H]1CC[C@H](OCCCOC)C2(CCCC2)C1 (racemic) [compound 27, N1-((3-((7R,10S)-10-(3-methoxypropoxy)spiro[4.5]decan-7-yl)-1H-pyrazol-4-yl)methyl)-N1,N2-dimethylethane-1,2-diamine]	383 nM
CNCCN(C)Cc1c[nH]nc1C1CC(COCC2CC2)CC(COCC2CC2)C1 (centres unmarked) [compound 2]	741 nM
CNCCN(C)Cc1c[nH]nc1[C@H]1CC[C@@]2(CCCCO2)CC1 [compound 3]	27.7 nM
CNCCN(C)Cc1c[nH]nc1[C@H]1CC[C@]2(CCCOC2)CC1 [compound 4, N1-((3-((6s,9s)-2-oxaspiro[5.5]undecan-9-yl)-1H-pyrazol-4-yl)methyl)-N1,N2-dimethylethane-1,2-diamine]	33.1 nM
CNCCN(C)Cc1c[nH]nc1[C@H]1CC[C@@]2(CCCOC2)CC1 [compound 5, N1-((3-((6r,9r)-2-oxaspiro[5.5]undecan-9-yl)-1H-pyrazol-4-yl)methyl)-N1,N2-dimethylethane-1,2-diamine]	35.9 nM
CNCCN(C)Cc1c[nH]nc1C1CCC(COCC(C)C)(COCC(C)C)CC1 [compound 6]	32 nM
CNCCN(C)Cc1c[nH]nc1C1CCC2(CCC(OC)CC2)CC1 (centres unmarked) [compound 9, N1-((3-(9-methoxyspiro[5.5]undecan-3-yl)-1H-pyrazol-4-yl)methyl)-N1,N2-dimethylethane-1,2-diamine]	13.5 nM
CNCCN(C)Cc1c[nH]nc1[C@H]1CC[C@]2(CCN(CCC(C)C)C2=O)CC1 [compound 10]	38.5 nM
CNCCN(C)Cc1c[nH]nc1[C@H]1CC[C@@]2(CCN(CCC(C)C)C2=O)CC1 [compound 11, (5r,8r)-2-isopentyl-8-(4-((methyl(2-(methylamino)ethyl)amino)methyl)-1H-pyrazol-3-yl)-2-azaspiro[4.5]decan-1-one]	18.6 nM
CNCCN(C)Cc1c[nH]nc1C1C[C@@H](C(=O)N(C)CC(C)C)C(C)(C)[C@H](C(=O)N(C)CC(C)C)C1 (some centres unmarked) [compound 12]	> 10000 nM
CNCCN(C)Cc1c[nH]nc1C1C[C@H](C(=O)NCCOC)C(C)(C)[C@H](C(=O)NCCOC)C1 (some centres unmarked) [compound 13]	> 10000 nM
CCN(C)C(=O)C1CC(c2n[nH]cc2CN(C)CCNC)CC(C(=O)NCCC(C)C)C1(C)C (centres unmarked) [compound 14, N1-ethyl-N3-isopentyl-N1,2,2-trimethyl-5-(4-((methyl(2-(methylamino)ethyl)amino)methyl)-1H-pyrazol-3-yl)cyclohexane-1,3-dicarboxamide]	> 10000 nM
CNCCN(C)Cc1c[nH]nc1C1=CCC(CF)(CF)CC1 [compound 15, N-((3-(4,4-bis(fluoromethyl)cyclohex-1-en-1-yl)-1H-pyrazol-4-yl)methyl)-N1,N2-dimethylethane-1,2-diamine]	16.7 nM
CNCCN(C)Cc1c[nH]nc1C1=CCC(COCC(F)(F)F)CC1 (centres unmarked) [compound 16, N1,N2-dimethyl-N1-((3-(4-((2,2,2-trifluoroethoxy)methyl)cyclohex-1-en-1-yl)-1H-pyrazol-4-yl)methyl)ethane-1,2-diamine]	17 nM
CNCCN(C)Cc1c[nH]nc1C1CCC(C)(C)[C@H](OCC(C)C)C1 (stereo partly drawn) [compound 20, ({3-[(3R)-4,4-dimethyl-3-(2-methylpropoxy)cyclohexyl]-1H-pyrazol-4-yl}methyl)(methyl)[2-(methylamino)ethyl]amine]	74.8 nM
CCC1CC(c2n[nH]cc2CN(C)CCNC)CC(C(=O)NCCOC)C1(C)C (centres unmarked) [compound 21, 3-ethyl-N-(2-methoxyethyl)-2,2-dimethyl-5-[4-([methyl[2-(methylamino)ethyl]amino]methyl)-1H-pyrazol-3-yl]cyclohexane-1-carboxamide dihydrochloride]	789 nM
CCC1(CC)CC2(CCC(c3n[nH]cc3CN(C)CCNC)CC2)N(C)C1=O (centres unmarked) [compound 22, 3,3-diethyl-1-methyl-8-(4-((methyl(2-(methylamino)ethyl)amino)methyl)-1H-pyrazol-3-yl)-1-azaspiro[4.5]decan-2-one]	62.7 nM
CNCCN(C)Cc1c[nH]nc1[C@H]1CC[C@@H](COCC(F)(F)F)CC1 [compound 23, N1,N2-dimethyl-N1-((3-((1s,4s)-4-((2,2,2-trifluoroethoxy)methyl)cyclohexyl)-1H-pyrazol-4-yl)methyl)ethane-1,2-diamine]	78.5 nM
CNCCN(C)Cc1c[nH]nc1[C@H]1CC[C@H](COCC(F)(F)F)CC1 [compound 24, N1,N2-dimethyl-N1-((3-((1r,4r)-4-((2,2,2-trifluoroethoxy)methyl)cyclohexyl)-1H-pyrazol-4-yl)methyl)ethane-1,2-diamine]	21.6 nM
CNCCN(C)Cc1cn(C)nc1C1CCC(C)(C)[C@@H](C(=O)NCC(C)C)C1 (some centres unmarked) [compound 25]	1610 nM
CNCCNCc1c[nH]nc1[C@H]1CC[C@@]2(CC1)CC(C)(C)CO2 [compound 28, N1-((3-((5s,8s)-3,3-dimethyl-1-oxaspiro[4.5]decan-8-yl)-1H-pyrazol-4-yl)methyl)-N2-methylethane-1,2-diamine]	262 nM
CNCCNCc1c[nH]nc1[C@H]1CC[C@]2(CC1)CC(C)(C)CO2 [compound 29, N1-((3-((5r,8r)-3,3-dimethyl-1-oxaspiro[4.5]decan-8-yl)-1H-pyrazol-4-yl)methyl)-N2-methylethane-1,2-diamine]	1910 nM
CNCCN(C)Cc1c[nH]nc1C1CCC(C)(C)[C@H](COCCCOC)C1 (stereo partly drawn) [compound 30, {2-[({3-[(3R)-3-[(3-methoxypropoxy)methyl]-4,4-dimethylcyclohexyl]-1H-pyrazol-4-yl}methyl)(methyl)amino]ethyl}(methyl)amine]	60.3 nM
CCOC[C@@H]1CC(c2n[nH]cc2CN(C)CCNC)CCC1(C)C (stereo partly drawn) [compound 31, {2-[({3-[(3R)-3-(ethoxymethyl)-4,4-dimethylcyclohexyl]-1H-pyrazol-4-yl}methyl)(methyl)amino]ethyl}(methyl)amine]	45.6 nM
CNCCN(C)Cc1c[nH]nc1C1CCC(C)(C)[C@H](CO)C1 (stereo partly drawn) [compound 32, [(1R)-2,2-dimethyl-5-[4-({methyl[2-(methylamino)ethyl]amino}methyl)-1H-pyrazol-3-yl]cyclohexyl]methanol]	16.3 nM
CCC1(CC)C[C@]2(CC[C@H](c3n[nH]cc3CN(C)CCNC)CC2)OC1=O [compound 33, (5s,8s)-3,3-diethyl-8-(4-((methyl(2-(methylamino)ethyl)amino)methyl)-1H-pyrazol-3-yl)-1-oxaspiro[4.5]decan-2-one]	20.8 nM
CCC1(CC)C[C@]2(CC[C@@H](c3n[nH]cc3CN(C)CCNC)CC2)OC1=O [compound 34, (5r,8r)-3,3-diethyl-8-(4-((methyl(2-(methylamino)ethyl)amino)methyl)-1H-pyrazol-3-yl)-1-oxaspiro[4.5]decan-2-one]	10.6 nM
